# ChEMBL document CHEMBL1201862, “PubChem BioAssay data set” (2004)
#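 The compound was tested at five concentrations on cells cultured in 96-well plates, with a 48-hour exposure period. Here, GI50 denotes the concentration required for 50% inhibition of growth.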 Activity calls are given as the source filed them. Cut-off read from the data, not from the text of the source: active = GI50 up to about 1.1 µM and inactive = higher.
# Experiments:
# Assay in all cases: NCI anticancer screen, dose series, 48 h
# Hs-578T = system: Hs-578T
# SN12C = system: SN12C
# PC-3 = system: PC-3
# KM12 = system: KM12
# RPMI-8226 = system: RPMI-8226
# HCT-116 = system: HCT-116
# UACC-62 = system: UACC-62
# MDA-MB-435 = system: MDA-MB-435
# OVCAR-4 = system: OVCAR-4
# HT-29 = system: HT-29
# SK-MEL-28 = system: SK-MEL-28
# SF-539 = system: SF-539
# IGROV-1 = system: IGROV-1
# CAKI-1 = system: CAKI-1
# A549 = system: A549
# MOLT-4 = system: MOLT-4
# SNB-75 = system: SNB-75
# TK-10 = system: TK-10
# NCI-H23 = system: NCI-H23
# NCI-H460 = system: NCI-H460
# MDA-N = system: MDA-N
# UACC-257 = system: UACC-257
# LOX IMVI = system: LOX IMVI
# SF-295 = system: SF-295
# 786-0 = system: 786-0
# HCC 2998 = system: HCC 2998
# NCI-H226 = system: NCI-H226
# OVCAR-5 = system: OVCAR-5
# OVCAR-8 = system: OVCAR-8
# A498 = system: A498
# NCI-H522 = system: NCI-H522
# DU-145 = system: DU-145
# HCT-15 = system: HCT-15
# SK-MEL-2 = system: SK-MEL-2
# COLO 205 = system: COLO 205
# SF-268 = system: SF-268
# NCI/ADR-RES = system: NCI/ADR-RES
# OVCAR-3 = system: OVCAR-3
# T47D = system: T47D
# UO-31 = system: UO-31
# SW-620 = system: SW-620
# SK-MEL-5 = system: SK-MEL-5
# RXF 393 = system: RXF 393
# SR = system: SR
# EKVX = system: EKVX
# U-251 = system: U-251
# HOP-92 = system: HOP-92
# MCF7 = system: MCF7
# M14 = system: M14
# ACHN = system: ACHN
# CCRF-CEM = system: CCRF-CEM
# SNB-19 = system: SNB-19
# SK-OV-3 = system: SK-OV-3
# HL-60 = system: HL-60
# HOP-62 = system: HOP-62
# BT-549 = system: BT-549
# MDA-MB-231 = system: MDA-MB-231
# Malme-3M = system: Malme-3M
structure (smiles),measurement,setting,value
O=c1c2cc(I)ccc2nc(SCc2nnco2)n1Cc1ccccc1,GI50,Hs-578T,31.7 µM (inactive)
same,GI50,SN12C,49.1 µM (inactive)
same,GI50,PC-3,> 100 µM (inactive)
same,GI50,KM12,> 100 µM (inactive)
same,GI50,RPMI-8226,> 100 µM (inactive)
same,GI50,HCT-116,> 100 µM (inactive)
same,GI50,UACC-62,73.8 µM (inactive)
same,GI50,MDA-MB-435,> 100 µM (inactive)
same,GI50,OVCAR-4,> 100 µM (inactive)
same,GI50,HT-29,60.5 µM (inactive)
same,GI50,SK-MEL-28,> 100 µM (inactive)
same,GI50,SF-539,> 100 µM (inactive)
same,GI50,IGROV-1,80.7 µM (inactive)
same,GI50,CAKI-1,> 100 µM (inactive)
same,GI50,A549,> 100 µM (inactive)
same,GI50,MOLT-4,0.1 µM (active)
same,GI50,SNB-75,56.5 µM (inactive)
same,GI50,TK-10,87.9 µM (inactive)
same,GI50,NCI-H23,> 100 µM (inactive)
same,GI50,NCI-H460,> 100 µM (inactive)
same,GI50,MDA-N,> 100 µM (inactive)
same,GI50,UACC-257,> 100 µM (inactive)
same,GI50,LOX IMVI,> 100 µM (inactive)
same,GI50,SF-295,98.2 µM (inactive)
same,GI50,786-0,35.7 µM (inactive)
same,GI50,HCC 2998,96.2 µM (inactive)
same,GI50,NCI-H226,> 100 µM (inactive)
same,GI50,OVCAR-5,> 100 µM (inactive)
same,GI50,OVCAR-8,> 100 µM (inactive)
same,GI50,A498,50.8 µM (inactive)
same,GI50,NCI-H522,44 µM (inactive)
same,GI50,DU-145,> 100 µM (inactive)
same,GI50,HCT-15,> 100 µM
same,GI50,SK-MEL-2,81.8 µM (inactive)
same,GI50,COLO 205,> 100 µM (inactive)
same,GI50,SF-268,> 100 µM (inactive)
same,GI50,NCI/ADR-RES,> 100 µM (inactive)
same,GI50,OVCAR-3,> 100 µM (inactive)
same,GI50,T47D,> 100 µM (inactive)
same,GI50,UO-31,1.39 µM (inactive)
same,GI50,SW-620,> 100 µM (inactive)
same,GI50,SK-MEL-5,> 100 µM (inactive)
same,GI50,RXF 393,58.1 µM (inactive)
same,GI50,SR,> 100 µM (inactive)
same,GI50,EKVX,29 µM (inactive)
same,GI50,U-251,> 100 µM (inactive)
same,GI50,HOP-92,35.6 µM (inactive)
same,GI50,MCF7,81.1 µM (inactive)
same,GI50,M14,> 100 µM (inactive)
same,GI50,ACHN,> 100 µM (inactive)
same,GI50,CCRF-CEM,10.8 µM (inactive)
same,GI50,SNB-19,> 100 µM (inactive)
same,GI50,SK-OV-3,> 100 µM (inactive)
same,GI50,HL-60,17.4 µM (inactive)
same,GI50,HOP-62,98.4 µM (inactive)
same,GI50,BT-549,> 100 µM (inactive)
same,GI50,MDA-MB-231,78.5 µM (inactive)
COc1ccc(C(OCC2OC(n3cc(C)c(=O)[nH]c3=O)CC2n2cc(Cn3cc(I)c(=O)[nH]c3=O)nn2)(c2ccccc2)c2ccccc2)cc1 (centres undefined),GI50,Hs-578T,44.8 µM (inactive)
same,GI50,SN12C,> 100 µM (inactive)
same,GI50,PC-3,> 100 µM (inactive)
same,GI50,KM12,14.2 µM (inactive)
same,GI50,RPMI-8226,15.2 µM (inactive)
same,GI50,HCT-116,> 100 µM (inactive)
same,GI50,UACC-62,> 100 µM (inactive)
same,GI50,Malme-3M,> 100 µM (inactive)
same,GI50,MDA-MB-435,> 100 µM (inactive)
same,GI50,OVCAR-4,> 100 µM (inactive)
same,GI50,HT-29,> 100 µM (inactive)
same,GI50,SK-MEL-28,> 100 µM (inactive)
same,GI50,SF-539,> 100 µM (inactive)
same,GI50,IGROV-1,> 100 µM (inactive)
same,GI50,CAKI-1,> 100 µM (inactive)
same,GI50,A549,> 100 µM (inactive)
same,GI50,MOLT-4,7.67 µM (inactive)
same,GI50,SNB-75,48.6 µM (inactive)
same,GI50,TK-10,> 100 µM (inactive)
same,GI50,NCI-H23,> 100 µM (inactive)
same,GI50,MDA-N,> 100 µM (inactive)
same,GI50,UACC-257,> 100 µM (inactive)
same,GI50,LOX IMVI,> 100 µM (inactive)
same,GI50,SF-295,> 100 µM (inactive)
same,GI50,786-0,> 100 µM (inactive)
same,GI50,HCC 2998,> 100 µM (inactive)
same,GI50,NCI-H226,> 100 µM (inactive)
same,GI50,OVCAR-5,> 100 µM (inactive)
same,GI50,OVCAR-8,> 100 µM (inactive)
same,GI50,A498,> 100 µM (inactive)
same,GI50,NCI-H522,> 100 µM (inactive)
same,GI50,DU-145,> 100 µM (inactive)
same,GI50,HCT-15,> 100 µM
same,GI50,SK-MEL-2,> 100 µM (inactive)
same,GI50,COLO 205,> 100 µM (inactive)
same,GI50,SF-268,78.5 µM (inactive)
same,GI50,NCI/ADR-RES,> 100 µM (inactive)
same,GI50,OVCAR-3,> 100 µM (inactive)
same,GI50,T47D,> 100 µM (inactive)
same,GI50,UO-31,> 100 µM (inactive)
same,GI50,SW-620,> 100 µM (inactive)
same,GI50,SK-MEL-5,> 100 µM (inactive)
same,GI50,RXF 393,> 100 µM (inactive)
same,GI50,SR,> 100 µM (inactive)
same,GI50,EKVX,> 100 µM (inactive)
same,GI50,U-251,> 100 µM (inactive)
same,GI50,HOP-92,> 100 µM (inactive)
same,GI50,MCF7,> 100 µM (inactive)
same,GI50,M14,> 100 µM (inactive)
same,GI50,ACHN,> 100 µM (inactive)
same,GI50,CCRF-CEM,11.2 µM (inactive)
same,GI50,SNB-19,> 100 µM (inactive)
same,GI50,SK-OV-3,> 100 µM (inactive)
same,GI50,HL-60,1.58 µM (inactive)
same,GI50,HOP-62,> 100 µM (inactive)
same,GI50,BT-549,> 100 µM (inactive)
same,GI50,MDA-MB-231,> 100 µM (inactive)
